One may read the IC50 as the concentration at which inhibition is half-maximal. The inhibition is the change of the read-out against control, counted positive when it falls. The half-life is the time in which the quantity being followed falls by half. What is called AUC(0-t) is exposure summed from dosing to a finite time, without extrapolation to infinity. For orientation: Papp A→B means the apparent permeability from the apical to the basolateral side of a cell layer. In general, efflux ratio refers to a quotient of directional permeabilities that is used to spot active efflux.

Experimental findings from ChEMBL document CHEMBL5338818, “Discovery of the First Potent, Selective, and In Vivo Efficacious Polo-like Kinase 4 Proteolysis Targeting Chimera Degrader for the Treatment of TRIM37-Amplified Breast Cancer” (J Med Chem, 2023) are described below.

Data set [1] relates to MCF7. Put plainly: Antiproliferative activity against human MCF7 cells incubated for 5 days by CCK-8 assay. The note with it: MCF7, 120 h. (Tetrazolium assays rely on reduction of a dye to a coloured formazan, in cell work by metabolically active cells.)
The target of data set [2] is T1, Serine/threonine-protein kinase PLK4 (Homo sapiens, UniProt O00444).
T1 sequence (O00444 whole entry): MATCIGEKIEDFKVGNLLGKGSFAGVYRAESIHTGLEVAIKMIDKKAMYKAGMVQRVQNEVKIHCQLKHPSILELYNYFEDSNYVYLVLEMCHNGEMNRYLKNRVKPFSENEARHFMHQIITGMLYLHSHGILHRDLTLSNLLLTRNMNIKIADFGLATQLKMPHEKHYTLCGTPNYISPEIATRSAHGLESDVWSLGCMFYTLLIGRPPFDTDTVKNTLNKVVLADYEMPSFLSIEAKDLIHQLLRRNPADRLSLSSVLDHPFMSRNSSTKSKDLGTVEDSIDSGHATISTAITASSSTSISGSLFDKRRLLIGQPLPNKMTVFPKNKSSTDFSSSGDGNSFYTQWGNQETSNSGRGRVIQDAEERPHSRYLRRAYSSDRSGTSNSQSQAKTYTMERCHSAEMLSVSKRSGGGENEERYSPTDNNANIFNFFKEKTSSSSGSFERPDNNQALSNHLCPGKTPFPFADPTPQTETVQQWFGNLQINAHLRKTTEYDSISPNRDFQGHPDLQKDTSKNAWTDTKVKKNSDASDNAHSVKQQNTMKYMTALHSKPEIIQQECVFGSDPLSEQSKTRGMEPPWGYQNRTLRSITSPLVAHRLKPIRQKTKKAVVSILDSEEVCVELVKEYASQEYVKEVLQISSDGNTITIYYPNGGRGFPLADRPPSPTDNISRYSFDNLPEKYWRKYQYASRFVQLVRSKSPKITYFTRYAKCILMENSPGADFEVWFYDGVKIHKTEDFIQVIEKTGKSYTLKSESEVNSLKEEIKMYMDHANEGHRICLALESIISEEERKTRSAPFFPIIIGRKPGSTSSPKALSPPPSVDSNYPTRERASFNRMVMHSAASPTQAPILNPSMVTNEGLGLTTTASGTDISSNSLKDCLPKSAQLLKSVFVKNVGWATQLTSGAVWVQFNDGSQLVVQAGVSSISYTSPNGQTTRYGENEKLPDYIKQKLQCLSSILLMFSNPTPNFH
As to the kind of experiment: Inhibition of PLK4 (unknown origin) incubated for 1 hr in presence of kinase tracer 236 by FRET assay.

Data set [3] has as its system MCF7. As to the kind of experiment: Antiproliferative activity against human MCF7 cells measured at 4 to 8 days interval by cell counting analysis. The format is functional, cell-based. The settings on record: time 4-8 day.
Data set [4] has as its target T2, Protein cereblon/Serine/threonine-protein kinase PLK4 (Homo sapiens, UniProt O00444+Q96SW2). Put plainly: Protac activity at CRBN/PLK4 in human MCF7 cells at 1 uM by Western blot analysis. The data set is classed as cell-based. A general note: A western blot detects proteins with antibodies after separation by electrophoresis.
The target in data set [5] is T2, Protein cereblon/Serine/threonine-protein kinase PLK4. As to the kind of experiment: Protac activity at CRBN/PLK4 in human MCF7 cells at 1 uM in presence of MG132 by Western blot analysis. The data set is classed as cell-based.
Data set [6] has as its target T3, Serine/threonine-protein kinase PLK4 (Homo sapiens) (UniProt O00444).
T3 sequence (whole entry): T1 sequence (O00444 whole entry)
Put plainly: Inhibition of PLK4 in human MCF7 cells assessed as increase in SAS-6 degradation by Western blot analysis. The format is cell-based. The settings on record: dose 1-1000 nM.

Data set [7] concerns MCF7. As to the kind of experiment: Inhibition of human MCF7 cells migration incubated for 48 hrs by inverted microscopic analysis. The format is functional, cell-based. The note with it: dose 0.1-1 µM.
Data set [8] can be described thus: Stability in human plasma assessed as compound remaining at 100 uM after 30 mins by LC-MS/MS analysis (reference value: 100%). The note with it: read-out: Stability. The format is ADME, cell-free.
Data set [9] in a line: Stability in human plasma assessed as compound remaining at 100 uM after 120 mins by LC-MS/MS analysis (reference value: 100%). The format is ADME, cell-free. The settings on record: read-out: Stability.
Data set [10] can be described thus: Metabolic stability in rat liver microsomes assessed as half life at 100 uM incubated for 60 mins in presence of NADPH by LC-MS/MS analysis. The format is ADME, Microsome. (In general: Liver microsomes are a subcellular fraction often used to study metabolism.)
Data set [11] is described as follows: Metabolic stability in mouse liver microsomes assessed as compound remaining at 100 uM incubated for 60 mins in presence of NADPH by LC-MS/MS analysis. The data set is classed as ADME, Microsome. The note with it: read-out: Stability.
The next data set has as its target T4, CYP1A2 (Homo sapiens, UniProt P05177).
T4 sequence (P05177 whole entry): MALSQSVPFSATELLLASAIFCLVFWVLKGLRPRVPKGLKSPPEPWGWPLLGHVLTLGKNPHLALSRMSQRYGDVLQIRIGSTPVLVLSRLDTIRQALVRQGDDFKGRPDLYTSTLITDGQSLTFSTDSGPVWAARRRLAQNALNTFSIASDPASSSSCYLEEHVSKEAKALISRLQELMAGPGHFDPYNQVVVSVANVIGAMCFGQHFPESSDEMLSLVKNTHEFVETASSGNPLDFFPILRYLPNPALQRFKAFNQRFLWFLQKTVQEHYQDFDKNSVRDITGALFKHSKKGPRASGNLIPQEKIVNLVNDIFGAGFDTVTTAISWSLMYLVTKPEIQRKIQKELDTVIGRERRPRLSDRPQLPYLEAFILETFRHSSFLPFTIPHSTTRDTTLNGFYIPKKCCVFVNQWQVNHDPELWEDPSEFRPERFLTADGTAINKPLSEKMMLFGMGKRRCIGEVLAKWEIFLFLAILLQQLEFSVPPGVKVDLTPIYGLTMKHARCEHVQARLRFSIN
As to the kind of experiment: Inhibition of CYP1A2 in human liver microsomes at 10 uM using alpha-Naphthoflavone as substrate preincubated for 10 mins followed by NADPH regenerating system addition and measured after 15 mins by LC-MS/MS analysis relative to control. The format is ADME, Microsome. The note with it: time 25 min.

A short description of data set [12]: AUClast in ICR mouse at 2 mg/kg, iv measured upto 24 hrs by LC-M/MS analysis. The format is ADME, organism-based. The arrangement: time < 24 hrs, dose 2 mg/kg, route iv. The note with it: in vivo.
The nature of data set [13]: Half life in ICR mouse at 20 mg/kg, ip measured upto 24 hrs by LC-M/MS analysis. The format is ADME, organism-based. The settings on record: in vivo.
Data set [14] can be described thus: Observed mean […] time infinity in ICR mouse at 2 mg/kg, iv measured upto 24 hrs by LC-M/MS analysis. The data set is classed as ADME, organism-based. The settings on record: in vivo.
Data set [15] can be described thus: Observed mean […] time infinity in ICR mouse at 20 mg/kg, ip measured upto 24 hrs by LC-M/MS analysis. The data set is classed as ADME, organism-based. The settings on record: in vivo.
A short description of data set [16]: Apparent permeability across apical to basolateral side in human Caco-2 cells at 2 uM incubated for 2 hrs by LC-MS/MS analysis. The format is ADME, cell-based.
Data set [17] is described as follows: Efflux ratio of apparent permeability across basolateral to apical side over apical to basolateral side in human Caco-2 cells. The data set is classed as ADME, cell-based.
The nature of data set [18]: Toxicity in nu/nu mouse xenografted with human MCF7 cells assessed as change in body weight at 20 mg/kg, ip administered once every other day for 21 days. The settings on record: in vivo, 504 h, time 21 day. The data set is classed as organism-based.
Data set [19] can be described thus: Toxicity in nu/nu mouse xenografted with human MCF7 cells assessed as effect on heart at 20 mg/kg, ip administered once every other day for 21 days by HE staining based analysis. The data set is classed as organism-based. The note with it: in vivo, 504 h, time 21 day.
The test system of another data set is Mus musculus. Put plainly: In vivo induction of PLK degradation in human MCF7 cells xenografted in nu/nu mouse at 20 mg/kg, ip administered once every other day for 21 days by western blotting analysis. The data set is classed as functional, organism-based. The note with it: time 21.0 day.
For data set [20], the system named is MCF7. Put plainly: Antitumor activity against human MCF7 cells xenografted in nu/nu mouse assessed as reduction in Ki-67 at 20 mg/kg,ip administered once every other day for 21 days by immunohistochemical analysis. The data set is classed as functional, organism-based. The note with it: time 21.0 day.

Calls of active or inactive are those of the source. The rule behind the calls is not given here.

T2 sequence (Q96SW2 whole entry, looked up, one chain of several): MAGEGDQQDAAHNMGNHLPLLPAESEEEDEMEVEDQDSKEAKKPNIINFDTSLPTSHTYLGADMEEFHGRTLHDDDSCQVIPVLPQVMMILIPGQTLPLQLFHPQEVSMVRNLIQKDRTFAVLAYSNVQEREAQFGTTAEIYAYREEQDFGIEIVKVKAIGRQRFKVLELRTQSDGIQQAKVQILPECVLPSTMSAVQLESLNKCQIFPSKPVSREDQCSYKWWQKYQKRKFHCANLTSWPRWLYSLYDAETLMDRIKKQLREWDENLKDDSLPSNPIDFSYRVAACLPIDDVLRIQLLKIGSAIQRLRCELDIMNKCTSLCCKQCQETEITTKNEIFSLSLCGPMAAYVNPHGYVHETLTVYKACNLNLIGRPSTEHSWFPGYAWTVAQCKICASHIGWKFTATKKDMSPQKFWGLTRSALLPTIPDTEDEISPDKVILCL

`Cc1cc(Nc2nc(NCc3ccc(F)cc3F)nc3c2cnn3C2CCN(C(=O)C3CCN(c4ccc5c(c4)C(=O)N(C4CCC(=O)NC4=O)C5=O)CC3)CC2)n[nH]1` (configuration not stated): the IC50 amounted to 73 nM in the data set with MCF7 [1] and 8.4 nM in [2]. In addition, the result (in the data set with MCF7 [3]; in data set [4]; in data set [5]) was Active. The inhibition result (in [6]; in the data set with MCF7 [7]) was “Dose-Dependent Effect” in each case. In addition, in [8], the remaining at 0.5 h, 100 µM is 96.6%. For the same compound, the remaining at 2 h, 100 µM in data set [9] came out at 69.9%. In addition, the half-life at 100 µM in [10] worked out at 66.4 min. For the same compound, the remaining at 1 h, 100 µM in data set [11] was 56.4%. Besides, at CYP1A2, the inhibition at 0.25 h, 10 µM was found to be 10.4%. For the same compound, the AUC(0-t) at 24 h in data set [12] was 941 ng·h/mL. In data set [13], the half-life is 280 min. The Time in [14] was determined as 2.29 h; in data set [15] it was 3.93 h. In addition, the Papp A→B at 2 h, 2 µM in [16] is 0.48 ×10⁻⁶ cm/s. The efflux ratio in data set [17] amounted to 2.02. Also, the Activity result in [18] and in [19] was “Non-Toxic” each time. In addition, the inhibition result in the data set with Mus musculus and in the data set on MCF7 [20] was “Active” in each case.
